ChEMBL document CHEMBL1121788, “Structure-activity studies on narcotic antagonists. 2. N-substituted ethyl 3-(m- or p-hydroxyphenyl) nipecotates” (1981)

Legend:
Assay type in all cases: functional
[1] = organism: Mus musculus; experiment: Analgesic activity in mice by the acetic acid writhing assay
[2] = organism: Mus musculus; experiment: Analgesic activity in mice by the tail-flick method
[3] = organism: Mus musculus; experiment: Compound was tested for antagonist activity against morphine sulfate by the mouse tail-flick method
[4] = organism: Mus musculus; experiment: Analgesic activity in mice by the tail-flick method, activity expressed as ED50

Row | SMILES | ED50 [1] | ED50 [2] | AD50 [3] | ED50 [4]
1 | Br.CCOC(=O)C1(c2cccc(O)c2)CCCN(CC2CC2)C1 (configuration not stated) | 4 µmol/kg | 68 µmol/kg | 18.8 µM/kg | 
2 | CCCN1CCCC(C(=O)OCC)(c2ccc(O)cc2)C1.Cl (configuration not stated) | 62.5 µmol/kg | > 305 µmol/kg | 140 µM/kg | 
3 | CCOC(=O)C1(c2ccc(O)cc2)CCCN(CC2CC2)C1.Cl (configuration not stated) | 4.65 µmol/kg | 100 µmol/kg | >294 µM/kg | 
4 | Br.CCOC(=O)C1(c2cccc(O)c2)CCCN(C)C1 (configuration not stated) | 5.66 µmol/kg |  | 24.4 µM/kg | > 290 µmol/kg
5 | Br.CCOC(=O)C1(c2ccc(O)cc2)CCCN(C)C1 (configuration not stated) | 22.9 µmol/kg | > 290 µmol/kg | >290 µM/kg | 
6 | C=CCN1CCCC(C(=O)OCC)(c2ccc(O)cc2)C1.Cl (configuration not stated) | 10.4 µmol/kg | > 307 µmol/kg | >307 µM/kg | 
7 | C=CCN1CCCC(C(=O)OCC)(c2cccc(O)c2)C1.O=P(O)(O)O (configuration not stated) | 7.22 µmol/kg | > 229 µmol/kg | >92 µM/kg | 
8 | CCCN1CCCC(C(=O)OCC)(c2cccc(O)c2)C1.O=P(O)(O)O (configuration not stated) | 5.59 µmol/kg | > 91 µmol/kg | 59.3 µM/kg | 
9 | CN1CC[C@]23c4c5ccc(O)c4O[C@H]2[C@@H](O)C=C[C@H]3[C@H]1C5 [MORPHINE] | 0.72 µmol/kg | 4.9 µmol/kg |  | 
10 | C=CCN1CC[C@]23c4c5ccc(O)c4O[C@H]2C(=O)CC[C@@]3(O)[C@H]1C5 [NALOXONE] |  | 0.08 µmol/kg |  | 
